The values below come from patent US8710065B2, “Tricyclic inhibitors of kinases” (AbbVie Inc., priority 2011, dated 2014).

A value given as a limit tells only on which side of the number the result lay.

In this assay the target is T1, GST-tagged-Wee1 kinase (Homo sapiens, UniProt P30291).
T1 construct: purchased Carnabio (Carna Biosciences) 05-177
T1 sequence (P30291 whole entry): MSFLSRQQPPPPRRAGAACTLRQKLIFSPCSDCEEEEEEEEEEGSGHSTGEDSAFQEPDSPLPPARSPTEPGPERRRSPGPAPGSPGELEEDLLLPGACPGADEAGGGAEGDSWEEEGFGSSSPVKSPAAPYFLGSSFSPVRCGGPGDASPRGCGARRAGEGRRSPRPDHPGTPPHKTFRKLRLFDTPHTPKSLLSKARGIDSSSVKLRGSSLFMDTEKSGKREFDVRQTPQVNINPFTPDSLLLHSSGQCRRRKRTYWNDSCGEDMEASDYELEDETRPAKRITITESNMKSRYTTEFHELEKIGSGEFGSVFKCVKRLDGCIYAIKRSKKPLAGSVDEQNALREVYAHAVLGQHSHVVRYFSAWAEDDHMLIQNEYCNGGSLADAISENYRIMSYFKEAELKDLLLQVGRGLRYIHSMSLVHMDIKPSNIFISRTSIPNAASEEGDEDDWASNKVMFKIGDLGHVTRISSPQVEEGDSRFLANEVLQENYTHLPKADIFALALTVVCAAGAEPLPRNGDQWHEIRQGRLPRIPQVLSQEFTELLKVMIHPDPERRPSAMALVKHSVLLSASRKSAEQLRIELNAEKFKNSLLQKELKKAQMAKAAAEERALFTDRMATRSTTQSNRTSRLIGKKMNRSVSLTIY
As to the kind of experiment: Wee1 time-resolved fluorescence equilibrium binding assay (displacement of Oregon Green-labeled ATP-competitive kinase probe). Conditions: read-out: Wee-1 inhibition (Ki). A digest of the protocol: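 Time-resolved fluorescence equilibrium binding with GST-Wee1, measuring displacement of a rapidly reversible Oregon Green-labelled ATP-competitive probe by competitive inhibitors; values reported as Ki.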
As to `CN1CCCC1CCNc1ccc(Nc2ncc3c(=O)n(-c4ccccc4Cl)c4nccn4c3n2)cc1` (centres unmarked) [Example 192, 6-(2-chlorophenyl)-2-[(4-{[2-(1-methylpyrrolidin-2-yl)ethyl]amino}phenyl)amino]imidazo[1,2-a]pyrimido[5,4-e]pyrimidin-5(6H)-one], the inhibition constant (Ki) is 10 to 100 nM.

In the case of `CN(C)C1CCC(OC(=O)c2ccc(Nc3ncc4c(=O)n(-c5c(Cl)cccc5Cl)c5nccn5c4n3)cc2)CC1` (centres unmarked) [Example 193, 4-(dimethylamino)cyclohexyl 4-{[6-(2,6-dichlorophenyl)-5-oxo-5,6-dihydroimidazo[1,2-a]pyrimido[5,4-e]pyrimidin-2-yl]amino}benzoate], the inhibition constant Ki was below 10 nM.

In the case of `O=c1c2cnc(Nc3ccc4[nH]ncc4c3)nc2n2ccnc2n1-c1c(Cl)cccc1Cl` [Example 194, 6-(2,6-dichlorophenyl)-2-(1H-indazol-5-ylamino)imidazo[1,2-a]pyrimido[5,4-e]pyrimidin-5(6H)-one], the Ki is below 10 nM.

As to `CC(C)[C@H]1CN(c2ccc(Nc3ncc4c(=O)n(-c5c(Cl)cccc5Cl)c5nccn5c4n3)cc2)CCN1` [Example 195, 6-(2,6-dichlorophenyl)-2-({4-[(3S)-3-(propan-2-yl)piperazin-1-yl]phenyl}amino)imidazo[1,2-a]pyrimido[5,4-e]pyrimidin-5(6H)-one], the Ki is below 10 nM.

Take `CC(C)CC(N(C)C)C1(c2ccc(Nc3ncc4c(=O)n(-c5c(Cl)cccc5Cl)c5nccn5c4n3)cc2)CCC1` (centres unmarked) [Example 196]: the inhibition constant (Ki) is below 10 nM.

On to `CNc1nc(C)c(-c2ccc(Nc3ncc4c(=O)n(-c5c(Cl)cccc5Cl)c5nccn5c4n3)cc2)s1` [Example 197, 6-(2,6-dichlorophenyl)-2-({4-[4-methyl-2-(methylamino)-1,3-thiazol-5-yl]phenyl}amino)imidazo[1,2-a]pyrimido[5,4-e]pyrimidin-5(6H)-one], for which the Ki is below 10 nM.

Consider `O=c1c2cnc(Nc3ccc(N4CCNCC4)nc3)nc2n2ccnc2n1-c1c(Cl)cccc1Cl` [Example 198, 6-(2,6-dichlorophenyl)-2-{[6-(piperazin-1-yl)pyridin-3-yl]amino}imidazo[1,2-a]pyrimido[5,4-e]pyrimidin-5(6H)-one], for which the Ki was below 10 nM.

In the case of `O=c1c2cnc(Nc3ccc4cn[nH]c4c3)nc2n2ccnc2n1-c1c(Cl)cccc1Cl` [Example 199, 6-(2,6-dichlorophenyl)-2-(1H-indazol-6-ylamino)imidazo[1,2-a]pyrimido[5,4-e]pyrimidin-5(6H)-one], the inhibition constant (Ki) was below 10 nM.

On to `O=C(O[C@@H]1CCCN2CCCCC12)c1ccc(Nc2ncc3c(=O)n(-c4c(Cl)cccc4Cl)c4nccn4c3n2)cc1` (stereo partly drawn) [Example 200, (1R)-octahydro-2H-quinolizin-1-yl 4-{[6-(2,6-dichlorophenyl)-5-oxo-5,6-dihydroimidazo[1,2-a]pyrimido[5,4-e]pyrimidin-2-yl]amino}benzoate], for which the Ki is below 10 nM.

Consider `CN(CCOC(=O)c1ccc(Nc2ncc3c(=O)n(-c4c(Cl)cccc4Cl)c4nccn4c3n2)cc1)C1CC1` [Example 201, 2-[cyclopropyl(methyl)amino]ethyl 4-{[6-(2,6-dichlorophenyl)-5-oxo-5,6-dihydroimidazo[1,2-a]pyrimido[5,4-e]pyrimidin-2-yl]amino}benzoate], for which the inhibition constant Ki was below 10 nM.

Turning to `CCN1C[C@H]2C[C@@H](C1)CN(C(=O)c1ccc(Nc3ncc4c(=O)n(-c5c(Cl)cccc5Cl)c5nccn5c4n3)cc1)C2` [Example 202, 6-(2,6-dichlorophenyl)-2-[(4-{[(1R,5S)-7-ethyl-3,7-diazabicyclo[3.3.1]non-3-yl]carbonyl}phenyl)amino]imidazo[1,2-a]pyrimido[5,4-e]pyrimidin-5(6H)-one], the Ki is below 10 nM.

Consider `O=c1c2cnc(Nc3cc(F)c(N4CCNCC4)c(F)c3)nc2n2ccnc2n1-c1ccccc1Cl` [Example 203, 6-(2-chlorophenyl)-2-{[3,5-difluoro-4-(piperazin-1-yl)phenyl]amino}imidazo[1,2-a]pyrimido[5,4-e]pyrimidin-5(6H)-one], for which the Ki is below 10 nM.

For the compound `O=c1c2cnc(Nc3ccc(N4CCN5CCC[C@@H]5C4)cc3)nc2n2ccnc2n1-c1ccccc1Cl` [Example 204, 6-(2-chlorophenyl)-2-({4-[(8aR)-hexahydropyrrolo[1,2-a]pyrazin-2(1H)-yl]phenyl}amino)imidazo[1,2-a]pyrimido[5,4-e]pyrimidin-5(6H)-one], the Ki is below 10 nM.

With `O=c1c2cnc(Nc3ccc4c(c3)CNCC43CC3)nc2n2ccnc2n1-c1ccc(O)cc1` [Example 205, 2-(2′,3′-dihydro-1′H-spiro[cyclopropane-1,4′-isoquinolin]-7′-ylamino)-6-(4-hydroxyphenyl)imidazo[1,2-a]pyrimido[5,4-e]pyrimidin-5(6H)-one], the Ki is below 10 nM.

Turning to `CS(=O)(=O)N1Cc2cc(Nc3ncc4c(=O)n(-c5c(Cl)cccc5Cl)c5nccn5c4n3)ccc2C2(CC2)C1` [Example 206, 6-(2,6-dichlorophenyl)-2-{[2′-(methylsulfonyl)-2′,3′-dihydro-1′H-spiro[cyclopropane-1,4′-isoquinolin]-7′-yl]amino}imidazo[1,2-a]pyrimido[5,4-e]pyrimidin-5(6H)-one], the Ki is below 10 nM.

Regarding `CC(=O)N1Cc2cc(Nc3ncc4c(=O)n(-c5c(Cl)cccc5Cl)c5nccn5c4n3)ccc2C2(CC2)C1` [Example 207, 2-[(2′-acetyl-2′,3′-dihydro-1′H-spiro[cyclopropane-1,4′-isoquinolin]-7′-yl)amino]-6-(2,6-dichlorophenyl)imidazo[1,2-a]pyrimido[5,4-e]pyrimidin-5(6H)-one], the Ki is below 10 nM.

Consider `O=c1c2cnc(Nc3ccc(N4CCN5CCCCC5C4)cc3)nc2n2ccnc2n1-c1ccccc1Cl` (centres unmarked) [Example 208, 6-(2-chlorophenyl)-2-{[4-(octahydro-2H-pyrido[1,2-a]pyrazin-2-yl)phenyl]amino}imidazo[1,2-a]pyrimido[5,4-e]pyrimidin-5(6H)-one], for which the Ki is below 10 nM.

As for `CN1Cc2cc(Nc3ncc4c(=O)n(-c5c(F)cccc5Cl)c5nccn5c4n3)ccc2C1(C)C` [Example 209, 6-(2-chloro-6-fluorophenyl)-2-[(1,1,2-trimethyl-2,3-dihydro-1H-isoindol-5-yl)amino]imidazo[1,2-a]pyrimido[5,4-e]pyrimidin-5(6H)-one], the Ki was below 10 nM.

For `CN1C(C)(C)c2ccc(Nc3ncc4c(=O)n(-c5c(F)cccc5Cl)c5nccn5c4n3)cc2C1(C)C` [Example 210, 6-(2-chloro-6-fluorophenyl)-2-[(1,1,2,3,3-pentamethyl-2,3-dihydro-1H-isoindol-5-yl)amino]imidazo[1,2-a]pyrimido[5,4-e]pyrimidin-5(6H)-one], the Ki was below 10 nM.

As to `O=c1c2cnc(Nc3ccc(N4CCN(C5COC5)CC4)cc3)nc2n2ccnc2n1-c1ccccc1Cl` [Example 211, 6-(2-chlorophenyl)-2-({4-[4-(oxetan-3-yl)piperazin-1-yl]phenyl}amino)imidazo[1,2-a]pyrimido[5,4-e]pyrimidin-5(6H)-one], the Ki was in the range of 10 to 100 nM.

For `CN1Cc2cc(Nc3ncc4c(=O)n(-c5c(Cl)cc(F)cc5Cl)c5nccn5c4n3)ccc2C(C)(C)C1` [Example 212, 6-(2,6-dichloro-4-fluorophenyl)-2-[(2,4,4-trimethyl-1,2,3,4-tetrahydroisoquinolin-7-yl)amino]imidazo[1,2-a]pyrimido[5,4-e]pyrimidin-5(6H)-one], the inhibition constant (Ki) is below 10 nM.

Take `O=c1cn[nH]c2ccc(Nc3ncc4c(=O)n(-c5c(Cl)cccc5Cl)c5nccn5c4n3)cc12` [Example 213, 6-(2,6-dichlorophenyl)-2-[(4-oxo-1,4-dihydrocinnolin-6-yl)amino]imidazo[1,2-a]pyrimido[5,4-e]pyrimidin-5(6H)-one]: the inhibition constant (Ki) is below 10 nM.

Regarding `CC(=O)N1CCN(c2ccc(Nc3ncc4c(=O)n(-c5c(Cl)cccc5Cl)c5nccn5c4n3)cc2)CC1` [Example 214, 2-{[4-(4-acetylpiperazin-1-yl)phenyl]amino}-6-(2,6-dichlorophenyl)imidazo[1,2-a]pyrimido[5,4-e]pyrimidin-5(6H)-one], the Ki was below 10 nM.

Consider `CN(C)C1CCN(c2ccc(Nc3ncc4c(=O)n(-c5c(Cl)cccc5Cl)c5nccn5c4n3)cc2)CC1` [Example 215, 6-(2,6-dichlorophenyl)-2-({4-[4-(dimethylamino)piperidin-1-yl]phenyl}amino)imidazo[1,2-a]pyrimido[5,4-e]pyrimidin-5(6H)-one], for which the inhibition constant (Ki) was below 10 nM.

As for `COC(=O)c1ccc(Nc2ncc3c(=O)n(-c4c(Cl)cccc4Cl)c4nccn4c3n2)cc1` [Example 216, methyl 4-{[6-(2,6-dichlorophenyl)-5-oxo-5,6-dihydroimidazo[1,2-a]pyrimido[5,4-e]pyrimidin-2-yl]amino}benzoate], the Ki is below 10 nM.

As to `O=c1c2cnc(Nc3cc(Cl)c(N4CCNCC4)c(Cl)c3)nc2n2ccnc2n1-c1ccccc1Cl` [Example 217, 6-(2-chlorophenyl)-2-{[3,5-dichloro-4-(piperazin-1-yl)phenyl]amino}imidazo[1,2-a]pyrimido[5,4-e]pyrimidin-5(6H)-one], the Ki was in the range of 10 to 100 nM.

For `O=c1c2cnc(Nc3ccc(-c4cn5ccccc5n4)cc3)nc2n2ccnc2n1-c1ccccc1Cl` [Example 218, 6-(2-chlorophenyl)-2-{[4-(imidazo[1,2-a]pyridin-2-yl)phenyl]amino}imidazo[1,2-a]pyrimido[5,4-e]pyrimidin-5(6H)-one], the Ki was 10 to 100 nM.

Turning to `CC(C)N1C(=O)CSC1c1ccc(Nc2ncc3c(=O)n(-c4ccccc4Cl)c4nccn4c3n2)cc1` (centres unmarked) [Example 219, 6-(2-chlorophenyl)-2-({4-[4-oxo-3-(propan-2-yl)-1,3-thiazolidin-2-yl]phenyl}amino)imidazo[1,2-a]pyrimido[5,4-e]pyrimidin-5(6H)-one], the Ki is below 10 nM.

With `O=c1c2cnc(Nc3ccc(-c4cn5c(n4)SCC5)cc3)nc2n2ccnc2n1-c1ccccc1Cl` [Example 220, 6-(2-chlorophenyl)-2-{[4-(2,3-dihydroimidazo[2,1-b][1,3]thiazol-6-yl)phenyl]amino}imidazo[1,2-a]pyrimido[5,4-e]pyrimidin-5(6H)-one], the Ki was in the range of 10 to 100 nM.

A word on the Ki: it is a dissociation constant, usually derived from enzyme kinetics or from competition with a known ligand.
